Consider 24 compounds from US8420695B2, “Inhibitors of janus kinases” (Merck Sharp & Dohme Corp., priority 2008, dated 2013).

pIC50: −log10 of the molar value.

A word on the pIC50: it is the negative decadic logarithm of the IC50, by convention in mol/L.

This experiment has as its target T1, recombinant JAK2 (JAK2 JH1 domain) (Homo sapiens, UniProt O60674).
T1 construct: 50 nM JAK2 JH1 domain (Upstate); purchased Upstate
Description: JAK2 Kinase Activity Inhibition Assay and Determination of IC50 (HTRF). The experiment is classed as biochemical. The conditions noted are these: 50 nM JAK2 JH1 domain, 15 μM MgATP, 80 min at room temperature. As for the experimental part: JAK2 Kinase Activity Inhibition Assay and Determination of IC50
The kinase activity was measured using a modified version of the homogeneous time-resolved tyrosine kinase assay described in Park et al. Anal. Biochem. 269, 94-104 (1999).
IC50 was obtained by fitting the observed relationship between compound/inhibitor concentration and HTRF signal with a 4-parameter logistic equation.
On the technique in general: Time-resolved FRET reads energy transfer from a long-lived donor to a nearby acceptor.

T1 sequence (O60674 849-1124 limits assumed): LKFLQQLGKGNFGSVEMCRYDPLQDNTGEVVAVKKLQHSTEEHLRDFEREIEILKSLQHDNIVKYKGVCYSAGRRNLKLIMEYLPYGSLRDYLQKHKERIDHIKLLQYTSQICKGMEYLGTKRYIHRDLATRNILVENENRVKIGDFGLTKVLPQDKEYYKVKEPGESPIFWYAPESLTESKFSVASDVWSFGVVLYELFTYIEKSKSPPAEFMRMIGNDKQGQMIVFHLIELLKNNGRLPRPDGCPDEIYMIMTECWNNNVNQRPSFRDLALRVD

Turning to `CC(C)(O)c1cc(F)c(-c2cc(C(N)=O)c(Nc3ccc(CN4CCS(=O)(=O)CC4)cc3)s2)c(F)c1` [Example 25, 5-[2,6-difluoro-4-(1-hydroxy-1-methylethyl)phenyl]-2-({4-[(1,1-dioxidothiomorpholin-4-yl)methyl]phenyl}amino)thiophene-3-carboxamide], the pIC50 is 7.59.

On to `CC(C)(O)c1cc(F)c(-c2cc(C(N)=O)c(Nc3ccnc(CO)c3)s2)c(F)c1` [Example 7, 5-[2,6-difluoro-4-(1-hydroxy-1-methylethyl)-phenyl]-2-{[2-(hydroxymethyl)-pyridin-4-yl]amino}thio-phene-3-carboxamide], for which the pIC50 was 7.12.

Consider `NC(=O)c1cc(-c2ccccc2)sc1Nc1cccnc1` [Example 18, 5-Phenyl-2-(pyridin-3-ylamino)-thiophene-3-carboxamide], for which the pIC50 is 6.49.

In the case of `CN(C)S(=O)(=O)c1ccc(Nc2sc(-c3c(F)cc(C(C)(C)O)cc3F)cc2C(N)=O)cc1` [Example 29, 5-[2,6-difluoro-4-(1-hydroxy-1-methylethyl)-phenyl]-2-({4-[(dimethylamino)sulfonyl]phenyl}-amino)-thiophene-3-carboxamide], the pIC50 was 7.36.

For `CN(C)Cc1ccc(Nc2sc(-c3c(F)cc(C(C)(C)O)cc3F)cc2C(N)=O)cc1` [Example 26, 5-[2,6-difluoro-4-(1-hydroxy-1-methylethyl)-phenyl]-2-({4-[(dimethylamino)methyl]phenyl}-amino)-thiophene-3-carboxamide], the pIC50 was 7.66.

With `CN(C)C(=O)c1ccc(Nc2sc(-c3c(F)cc(C(C)(C)O)cc3F)cc2C(N)=O)cc1` [Example 5, 5-[2,6-difluoro-4-(1-hydroxy-1-methylethyl)-phenyl]-2-({4-[(dimethylamino)carbonyl]phenyl}amino)thiophene-3-carboxamide], the pIC50 was 7.68.

Take `CC(C)(O)c1cc(F)c(-c2cc(C(N)=O)c(Nc3ccc(CO)cc3)s2)c(F)c1` [Example 22, 5-[2,6-difluoro-4-(1-hydroxy-1-methylethyl)-phenyl]-2-{[4-(hydroxymethyl)-phenyl]amino}-thiophene-3-carboxamide]: the pIC50 was 6.77.

`CC(C)(O)c1cc(F)c(-c2cc(C(N)=O)c(Nc3ccc(NS(C)(=O)=O)cc3)s2)c(F)c1` [Example 31, 5-[2,6-difluoro-4-(1-hydroxy-1-methylethyl)phenyl]-2-({4-[(methylsulfonyl)amino]phenyl}amino)thiophene-3-carboxamide]: the pIC50 was 7.25.

In the case of `CC(C)(O)c1cc(F)c(-c2cc(C(N)=O)c(Nc3ccccc3)s2)c(F)c1` [Example 21, 2-anilino-5-[2,6-difluoro-4-(1-hydroxy-1-methylethyl)phenyl]thiophene-3-carboxamide], the pIC50 is 6.31.

As to `CC(C)(O)c1cc(F)c(-c2cc(C(N)=O)c(Nc3ccc(S(C)(=O)=O)cc3)s2)c(F)c1` [Example 1, 5-[2,6-difluoro-4-(1-hydroxy-1-methylethyl)phenyl]-2-{[4-(methylsulfonyl)phenyl]amino}thiophene-3-carboxamide], the negative-log IC50 (pIC50) is 7.33.

Take `NC(=O)c1cc(-c2ccccc2)sc1Nc1cncnc1` [Example 19, 5-Phenyl-2-(pyrimidin-5-ylamino)-thiophene-3-carboxamide]: the pIC50 was 5.59.

Take `Cc1noc(-c2ccc(Nc3sc(-c4c(F)cc(C(C)(C)O)cc4F)cc3C(N)=O)cc2)n1` [Example 9, 5-[2,6-difluoro-4-(1-hydroxy-1-methylethyl)-phenyl]-2-{[4-(3-methyl-1,2,4-oxadiazol-5-yl)phenyl]amino} thiophene-3-carboxamide]: the pIC50 was 5.85.

As for `CC(C)(O)c1ccc(-c2cc(C(N)=O)c(Nc3cccnc3)s2)cc1` [Example 10, 5-(4-(1-Hydroxy-1-methylethyl)phenyl)-2-(3-pyridinylamino)-3-thiophenecarboxamide], the pIC50 is 6.66.

For the compound `CC(C)(O)c1cc(F)c(-c2cc(C(N)=O)c(Nc3ccc(C(=O)N4CCOCC4)cc3)s2)c(F)c1` [Example 14, 5-[2,6-difluoro-4-(1-hydroxy-1-methylethyl)phenyl]-2-{[4-(morpholin-4-ylcarbonyl)phenyl]amino}thiophene-3-carboxamide], the pIC50 is 7.68.

Take `NC(=O)c1cc(-c2ccccc2)sc1Nc1ccccc1` [Example 17, 2-Anilino-5-phenylthiophene-3-carboxamide]: the pIC50 is 6.00.

On to `CS(=O)(=O)c1ccc(Nc2sc(-c3ccc(Cl)cc3)cc2C(N)=O)cc1` [Example 2, 5-(4-chlorophenyl)-2-{[4-(methylsulfonyl)-phenyl]amino}thio-phene-3-carboxamide], for which the pIC50 is 6.66.

For `CC(C)(O)c1cc(F)c(-c2cc(C(N)=O)c(Nc3ccncc3)s2)c(F)c1` [Example 6, 5-[2,6-difluoro-4-(1-hydroxy-1-methylethyl)-phenyl]-2-(pyridin-4-ylamino)thio-phene-3-carboxamide], the pIC50 was 6.92.

In the case of `CC(C)(O)c1ccc(Nc2sc(-c3c(F)cc(C(C)(C)O)cc3F)cc2C(N)=O)cc1` [Example 12, 5-[2,6-difluoro-4-(1-hydroxy-1-methylethyl)phenyl]-2-{[4-(1-hydroxy-1-methylethyl)phenyl]amino}thiophene-3-carboxamide], the pIC50 is 7.54.

In the case of `CC(C)(O)c1cc(F)c(-c2cc(C(N)=O)c(Nc3ccc(C=O)cc3)s2)c(F)c1` [Example 24, 5-[2,6-difluoro-4-(1-hydroxy-1-methylethyl)phenyl]-2-[(4-formylphenyl)amino]thiophene-3-carboxamide], the pIC50 was 6.39.

Consider `CC(C)(O)c1cc(F)c(-c2cc(C(N)=O)c(Nc3ccc(S(=O)(=O)N4CCOCC4)cc3)s2)c(F)c1` [Example 28, 5-[2,6-difluoro-4-(1-hydroxy-1-methylethyl)phenyl]-2-{[4-(morpholin-4-ylsulfonyl)phenyl]amino}thiophene-3-carboxamide], for which the pIC50 is 7.25.

`CC(=O)c1ccc(Nc2sc(-c3c(F)cc(C(C)(C)O)cc3F)cc2C(N)=O)cc1` [Example 11, 2-[(4-acetylphenyl)amino]-5-[2,6-difluoro-4-(1-hydroxy-1-methylethyl)phenyl]thiophene-3-carboxamide]: the pIC50 is 6.96.

For the compound `NC(=O)c1cc(-c2ccccc2)sc1Nc1ccncc1` [Example 20, 5-Phenyl-2-(pyridin-4-ylamino)-thiophene-3-carboxamide], the negative logarithm of the IC50 (pIC50) is 6.74.

`CC(C)(O)c1cc(F)c(-c2cc(C(N)=O)c(Nc3ccc(CN4CCOCC4)cc3)s2)c(F)c1` [Example 23, 5-[2,6-difluoro-4-(1-hydroxy-1-methylethyl)-phenyl]-2-{[4-(morpholin-4-ylmethyl)-phenyl]amino}-thiophene-3-carboxamide]: the pIC50 was 7.38.

For the compound `CNC(=O)c1ccc(Nc2sc(-c3c(F)cc(C(C)(C)O)cc3F)cc2C(N)=O)cc1` [Example 4, 5-[2,6-difluoro-4-(1-hydroxy-1-methylethyl)-phenyl]-2-({4-[(methylamino)-carbonyl]phenyl}-amino)thiophene-3-carboxamide], the pIC50 is 7.49.
